Measurements published in the CheMixHub viscosity set.
Several values for one entry are separate records, joined by “and”; a condition that tells them apart may be missing. Equal entries are not always repeated.

Test: xn = mol fraction of the nth substance listed

N[C@@H](Cc1ccccc1)C(=O)O + O
viscosity
Conditions | 298.15 K | 303.15 K | 308.15 K | 313.15 K
100 kPa, x1 = 0.0004 | 0.8956 mPa·s | 0.8037 mPa·s | 0.7264 mPa·s | –
100 kPa, x1 = 0.0007 | 0.8984 mPa·s | 0.8062 mPa·s | 0.7289 mPa·s | 0.6638 mPa·s
100 kPa, x1 = 0.001 | 0.901 mPa·s | 0.8088 mPa·s and 0.8113 mPa·s | 0.7315 mPa·s and 0.7343 mPa·s | 0.6689 mPa·s and 0.6664 mPa·s
100 kPa, x1 = 0.0018 | 0.9067 mPa·s | 0.8139 mPa·s | – | 0.6713 mPa·s
100 kPa, x1 = 0.0022 | 0.9093 mPa·s | 0.8169 mPa·s | 0.7395 mPa·s | 0.6738 mPa·s
101 kPa, x1 = 0.00018 | 0.912 mPa·s | 0.803 mPa·s | 0.731 mPa·s | 0.658 mPa·s
101 kPa, x1 = 0.000362 | 0.919 mPa·s | 0.809 mPa·s | 0.734 mPa·s | –
101 kPa, x1 = 0.000725 | 0.927 mPa·s | 0.822 mPa·s | 0.745 mPa·s | 0.671 mPa·s
101 kPa, x1 = 0.000909 | 0.931 mPa·s | 0.825 mPa·s | 0.749 mPa·s | 0.674 mPa·s
101 kPa, x1 = 0.00109 | 0.949 mPa·s | 0.841 mPa·s | – | 0.688 mPa·s
101 kPa, x1 = 0.00146 | 0.959 mPa·s | 0.849 mPa·s | 0.767 mPa·s | 0.692 mPa·s

COC(C)=O + ClCCCl
303.15 K, 101.3 kPa
Conditions | viscosity [mPa·s]
x1 = 0.1016 | 0.6754
x1 = 0.199 | 0.6342
x1 = 0.2978 | 0.594
x1 = 0.4014 | 0.5517
x1 = 0.4966 | 0.5168
x1 = 0.5959 | 0.4819
x1 = 0.6976 | 0.4445
x1 = 0.8973 | 0.378

COC(C)=O + CCCCCCCCCCCC
298.15 K, 101.3 kPa
Conditions | viscosity [mPa·s]
x1 = 0.09 | 1.243
x1 = 0.213 | 1.08
x1 = 0.3361 | 0.9577
x1 = 0.4514 | 0.8306
x1 = 0.5533 | 0.7377
x1 = 0.6236 | 0.6777
x1 = 0.6972 | 0.6144
x1 = 0.7671 | 0.557
x1 = 0.8924 | 0.4527
x1 = 0.9377 | 0.4171

O=C(O)c1ccccc1 + O=[N+]([O-])c1ccccc1
viscosity [mPa·s], 101 kPa
Conditions | x1 = 0.09745 | x1 = 0.108 | x1 = 0.139 | x1 = 0.1489 | x1 = 0.175
308.15 K | 1.746 | – | – | – | –
313.15 K | 1.626 | 1.626 | 1.675 | 1.746 | 1.746
318.15 K | 1.503 | – | – | 1.611 | –
323.15 K | 1.397 | – | – | 1.492 | –

COC(C)=O + COCCO
viscosity [mPa·s], 101 kPa
Conditions | x2 = 0.0993 | x2 = 0.2004 | x2 = 0.2993 | x2 = 0.4009 | x2 = 0.4996 | x2 = 0.6014 | x2 = 0.7013 | x2 = 0.8006 | x2 = 0.9001
298.15 K | 0.429 | 0.484 | 0.549 | 0.636 | 0.729 | 0.862 | 1.012 | 1.218 | 1.453
303.15 K | 0.407 | 0.457 | 0.517 | 0.596 | 0.679 | 0.797 | 0.929 | 1.112 | 1.317
308.15 K | 0.387 | 0.432 | 0.486 | 0.556 | 0.632 | 0.738 | 0.858 | 1.025 | 1.2

O=C(O)c1ccccc1 + CC(C)=O
viscosity, 101 kPa
Conditions | 298.15 K | 303.15 K | 308.15 K | 313.15 K | 318.15 K
x1 = 0.201 | – | – | 0.6647 mPa·s | – | 0.5884 mPa·s
x1 = 0.2103 | 0.755 mPa·s | 0.7075 mPa·s | 0.6647 mPa·s | 0.6278 mPa·s | 0.5884 mPa·s
x1 = 0.213 | – | – | 0.6741 mPa·s | – | 0.5924 mPa·s
x1 = 0.229 | – | 0.7776 mPa·s | 0.7283 mPa·s and 0.7283 mPa·s | 0.6819 mPa·s | 0.6407 mPa·s and 0.6407 mPa·s
x1 = 0.247 | – | – | 0.75 mPa·s | – | 0.6571 mPa·s

CCC(C)=O + CCC(C)O
viscosity [mPa·s], 101.3 kPa
Conditions | x2 = 0.1018 | x2 = 0.1991 | x2 = 0.2984 | x2 = 0.397 | x2 = 0.4966 | x2 = 0.5968 | x2 = 0.6985 | x2 = 0.8007 | x2 = 0.9003
298.15 K | 0.423 | 0.461 | 0.511 | 0.578 | – | 0.804 | 1.005 | 1.332 | 1.896
308.15 K | 0.38 | 0.415 | 0.452 | 0.505 | 0.576 | 0.677 | 0.824 | – | 1.426
318.15 K | 0.344 | 0.369 | 0.402 | 0.445 | 0.501 | 0.578 | 0.686 | 0.849 | 1.099

CCCCCCOC(C)=O + CCCCCCO
viscosity [mPa·s], 101.33 kPa
Conditions | x1 = 0.0998 | x1 = 0.2013 | x1 = 0.3012 | x1 = 0.4056 | x1 = 0.4937 | x1 = 0.6002 | x1 = 0.7021 | x1 = 0.8045 | x1 = 0.9018
293.15 K | 4.012 | 3.281 | 2.721 | 2.266 | 1.964 | 1.677 | 1.464 | 1.299 | 1.176
303.15 K | 3.073 | 2.502 | 2.065 | 1.71 | 1.474 | 1.249 | 1.083 | 0.954 | 0.858
313.15 K | 2.301 | 1.899 | 1.584 | 1.332 | 1.164 | 1.005 | 0.887 | 0.795 | 0.726

COC(C)=O + CC(C)O
298.15 K
Conditions | viscosity [mPa·s]
101 kPa, x2 = 0.0988 | 0.385
101 kPa, x2 = 0.2003 | 0.416
101 kPa, x2 = 0.3227 | 0.453
101 kPa, x2 = 0.3967 | 0.484
101 kPa, x2 = 0.4976 | 0.53
101 kPa, x2 = 0.666 | 0.668
101 kPa, x2 = 0.7895 | 0.933
101 kPa, x2 = 0.7978 | 0.96
101 kPa, x2 = 0.9011 | 1.37
101.33 kPa, x1 = 0.0598 | 1.642
101.33 kPa, x1 = 0.1684 | 1.101
101.33 kPa, x1 = 0.2671 | 0.83
101.33 kPa, x1 = 0.3634 | 0.671
101.33 kPa, x1 = 0.4646 | 0.571
101.33 kPa, x1 = 0.5621 | 0.504
101.33 kPa, x1 = 0.6773 | 0.448
101.33 kPa, x1 = 0.7619 | 0.417
101.33 kPa, x1 = 0.866 | 0.394

O=S(=O)([O-])c1ccc(O)cc1.[Na+] + O
viscosity [mPa·s], 101 kPa
Conditions | x1 = 9e-05 | x1 = 0.00018 | x1 = 0.0009 | x1 = 0.0018 | x1 = 0.00448 | x1 = 0.00893 | x1 = 0.0133 | x1 = 0.0177
298.15 K | 0.899 | 0.9 | 0.915 | 0.931 | 0.988 | 1.085 | 1.196 | 1.321
318.15 K | 0.598 | 0.599 | 0.608 | 0.62 | 0.656 | 0.715 | 0.786 | 0.86

O=C(O)c1ccccc1 + CCCO
viscosity
Conditions | 298.15 K | 303.15 K | 308.15 K | 313.15 K | 318.15 K
101 kPa, x1 = 0.164 | – | 2.531 mPa·s | – | – | 1.77 mPa·s
101 kPa, x1 = 0.1645 | 2.892 mPa·s | 2.531 mPa·s | 2.243 mPa·s | 1.988 mPa·s | 1.77 mPa·s
101 kPa, x1 = 0.178 | – | 2.603 mPa·s | – | – | 1.816 mPa·s
101 kPa, x1 = 0.197 | – | 2.724 mPa·s | – | – | 1.881 mPa·s
101 kPa, x1 = 0.216 | – | 2.844 mPa·s and 2.844 mPa·s | 2.498 mPa·s | 2.206 mPa·s | 1.965 mPa·s and 1.965 mPa·s
101.33 kPa, x1 = 0.1645 | – | 2.531 mPa·s | – | – | 1.77 mPa·s
101.33 kPa, x1 = 0.178 | – | 2.603 mPa·s | – | – | 1.816 mPa·s
101.33 kPa, x1 = 0.1975 | – | 2.734 mPa·s | – | – | 1.881 mPa·s
101.33 kPa, x1 = 0.2 | 2.892 mPa·s | 2.531 mPa·s and 2.531 mPa·s | 2.243 mPa·s and 2.243 mPa·s | 1.988 mPa·s and 1.988 mPa·s | 1.77 mPa·s and 1.77 mPa·s
101.33 kPa, x1 = 0.216 | – | 2.844 mPa·s | – | – | 1.965 mPa·s
101.33 kPa, x1 = 0.22 | – | 2.844 mPa·s and 2.844 mPa·s | 2.498 mPa·s and 2.498 mPa·s | 2.206 mPa·s and 2.206 mPa·s | 1.965 mPa·s and 1.965 mPa·s

O.O.O=C(O)c1cc(S(=O)(=O)O)ccc1O + O
viscosity [mPa·s], 101 kPa
Conditions | x1 = 0.0004118 | x1 = 0.0005979 | x1 = 0.0007679 | x1 = 0.001076
298.15 K | 0.8998 | 0.9032 | 0.907 | 0.9134
308.15 K | 0.7268 | 0.7304 | 0.7332 | 0.7386
318.15 K | 0.597 | 0.6063 | 0.6087 | 0.6128

CCC(C)=O + CCCCCCO
viscosity [mPa·s], 100 kPa
Conditions | x1 = 0.0791 | x1 = 0.1639 | x1 = 0.2389 | x1 = 0.3481 | x1 = 0.4401 | x1 = 0.5609 | x1 = 0.6516 | x1 = 0.7391 | x1 = 0.8511 | x1 = 0.9382
293.15 K | 3.8 | 2.9 | 2.29 | 1.69 | 1.3 | 0.93 | 0.75 | 0.57 | 0.41 | 0.4
303.15 K | 2.95 | 2.28 | 1.87 | 1.42 | 1.09 | 0.81 | 0.7 | 0.58 | 0.47 | 0.41
313.15 K | 2.28 | 1.8 | 1.49 | 1.15 | 0.92 | 0.72 | 0.6 | 0.51 | 0.42 | 0.37
323.15 K | 1.8 | 1.46 | 1.21 | 0.96 | 0.79 | 0.62 | 0.52 | 0.45 | 0.37 | 0.34

COc1ccccc1N + CC(=O)O
viscosity [mPa·s], 100 kPa
Conditions | x1 = 0.1011 | x1 = 0.1745 | x1 = 0.2562 | x1 = 0.3454 | x1 = 0.4852 | x1 = 0.5894 | x1 = 0.6674 | x1 = 0.7458 | x1 = 0.8979
303.15 K | 1.442 | 1.732 | 2.053 | 2.402 | 2.947 | 3.351 | 3.652 | 3.953 | 4.535
308.15 K | 1.349 | 1.618 | 1.916 | 2.24 | 2.745 | 3.118 | 3.397 | 3.676 | 4.214
313.15 K | 1.257 | 1.505 | 1.78 | 2.078 | 2.541 | 2.885 | 3.141 | 3.397 | 3.891
318.15 K | 1.166 | 1.394 | 1.646 | 1.92 | 2.346 | 2.662 | 2.897 | 3.132 | 3.584

CCCCCCCC(=O)OCC + CC(C)CCO
100 kPa
Conditions | viscosity [mPa·s]
298.15 K, x1 = 0.3 | 1.885
308.15 K, x1 = 0.5001 | 1.315
313.15 K, x1 = 0.1 | 1.845
